Assay [1] relates to PIK3CA^e20H1047R mammary tumor explants (spindle cell tumor with TP53 mutations) grown as xenografts. The experiment in a line: Drug efficacy study: mammary tumor explants implanted subcutaneously near mammary fat pad, tumor growth inhibition and time to progression. Format: in vivo, C.B-17 SCID beige mice. The procedure:
Tumor sizes and mouse body weights were recorded twice weekly over the course of the study. […] The 2.5 and 97.5 percentiles of the simulated distribution were used as the […] UIs.

Assay [2] relates to pAKT and pS6 (PI3K pathway) in PIK3CA^e20H1047R mammary tumor explants. The experiment in a line: Western blot of tumors from GDC-0941 treated mice (PI3K pathway inhibition). Format: in vivo, C.B-17 SCID beige mice. The following applies: at least up to 10 hours following treatment. (A western blot detects proteins with antibodies after separation by electrophoresis.)
Procedure: Frozen tumors were weighed and lysed with a pestle PP (Scienceware, NJ) in cell extract buffer (Invitrogen, CA) supplemented with protease inhibitors (F. Hoffman-La Roche, Ltd., Germany), 1 mM phenylmethysulfonyl fluoride, and phosphatase inhibitor cocktails 1 and 2 (Sigma, Mo.). Protein concentrations were determined using the Pierce BCA Protein Assay Kit (Rockford, Ill.). For Western blots equal amounts of protein were separated by electrophoresis through NuPage Bis-Tris 4-12% gradient gels (Invitrogen, CA), proteins were transferred onto nitrocellulose pore membranes using the iBlot system (Invitrogen, CA). Primary antibodies used for blotting include pAkt (Ser473), pAkt (Thr308), total Akt, pS6 (Ser235/236), pS6 (Ser240/242) and total S6 antibodies were obtained from Cell Signaling Technology (Danvers, Mass.), and anti-actin antibody was purchased from Sigma-Aldrich (St. Louis, Mo.). Chemiluminescence western blotting detection (Amersham Biosciences, PA) coupled with appropriate secondary horseradish peroxidase-conjugated secondary IgG antibodies was employed, to detect the primary antibody bound proteins.

SMILES strings stand for the structures. Entries after “also recorded” stand apart in the source; their conditions may differ.

Consider `CS(=O)(=O)N1CCN(Cc2cc3nc(-c4cccc5[nH]ncc45)nc(N4CCOCC4)c3s2)CC1` [GDC-0941], for which, in assay [1] (150 mg/kg, daily oral gavage for 13 days, % TGI relative to vehicle (AUC based), highest TGI), the “tumor growth inhibition (TGI)” value is on record as 85%. The “response of tumor explants grown as xenografts to treatment” value in assay [1] (FIG. 5a legend) is reported as “respond to treatment”. The “time to progression, log-rank test versus vehicle control” value in assay [1] (all doses tested (50, 100, 150 mg/kg), p<0.0001 at 150 mg/kg) is recorded as “statistically significant difference”. Also, in assay [1] (other doses tested (50 and 100 mg/kg), daily oral gavage for 13 days), the “tumor growth inhibition compared to vehicle treatment” value was “tumor growth inhibition was also observed”. In addition, the “pAKT and pS6 in tumor from treated mice” value in assay [2] is “significant decrease in pAKT and pS6; also recorded: evidence of PI3K pathway inhibition”.
